Tests used:
[1] = test system: Haemonchus contortus; experiment: Method A: screening against Haemonchus contortus, L1 larvae in microtitre plate; conditions: 96 h, 4 days assessment, read-out: motility inhibition; for inhibition at 0.0025 ppm: test concentration 0.0025 ppm; for inhibition at 0.01 ppm: test concentration 0.01 ppm; for inhibition at 0.04 ppm: test concentration 0.04 ppm; for inhibition at 0.15 ppm: test concentration 0.15 ppm
From the text: Method A: Screening Method to Test Activity of Compounds Against Haemonchus contortus.

[2] = test system: Haemonchus contortus; experiment: Method B: Haemonchus contortus in vivo in Mongolian gerbil, oral gavage; design: species or system Mongolian gerbil (Meriones unguiculatus); conditions: 72 h, Mongolian gerbils, read-out: reduction in nematode infestation; for inhibition in vivo at 100 mg/kg: necropsy 3 days after treatment
Description: Method B: Screening Method to Test Activity of Compounds Against Haemonchus contortus In Vivo in Mongolian Gerbil (Meriones unguiculatus).
Mongolian gerbils, at least five weeks old, were immunosuppressed and artificially infected with ca. 1000 ensheathed Haemonchus contortus third instar larvae. Six days after infection, the Mongolian gerbils were treated by oral gavage with the test compounds, dissolved in a mixture of 2 parts DMSO and 1 part polyethylene glycol (PEG400), at doses of 100 mg/kg and dissolved in pure polyethylene glycol (PEG400) at doses of 10 and 1 mg/kg. Jirds treated only with the placebo (2 parts DMSO and 1 part PEG400 or pure PEG400) served as controls. On day 9 (3 days after treatment) the jirds were euthanized and necropsied for recovery of parasites from the stomach. Efficacy was calculated as the average % reduction in the number of worms in each test group compared with the average number of worms from the control group. […] Compound numbers 1.001, 1.008, 1.012, 1.013 and 1.014 provided at least 95% reduction in nematode infestation in Mongolian gerbils treated by oral gavage with test article at a dose of 100 mg/kg. Compound numbers 1.012, 1.033, 1.064, 2.008, 2.037, 2.038, 2.040, 2.041, 3.001 provided at least 95% reduction in nematode infestation at a dose of 10 mg/kg. Compound numbers 1.094, 2.048, 3.001, 3.007 and 3.009, provided at least 95% reduction in nematode infestation at a dose of 1 mg/kg. Compound numbers 3.005, 3.006, 3.011, 3.012, 3.017 and 3.019, provided at least 95% reduction in nematode infestation at a dose of 0.5 mg/kg.

[3] = test system: Trichostrongylus colubriformis; experiment: Method D: screening against Trichostrongylus colubriformis, L1 larvae in microtitre plate; conditions: 96 h, 4 days assessment, read-out: motility inhibition; for inhibition at 0.01 ppm: test concentration 0.01 ppm; for inhibition at 0.04 ppm: test concentration 0.04 ppm; for inhibition at 0.15 ppm: test concentration 0.15 ppm
Description: Method D: Screening Method to Test Activity of Compounds Against Trichostrongylus colubriformis.
Twenty L1 Trichostrongylus colubriformis larvae were added to wells of a microtitre plate containing a nutrient medium and the test compound in DMSO. The microtitre plate was then held at 27° C. where the L1 larvae were allowed to develop. An analysis was conducted at 4 days to determine successful development to the L3 stage. Larvae exposed to DMSO and no test compound served as controls. Compounds numbers 1.008, 1.014, 1.042, 1.047, 1.048, 1.073, 2.001, 2.003 and 2.020, gave at least 90% motility inhibition at a test concentration of 0.15 ppm at the 4 days assessment. Compounds numbers 1.001, 1.003, 1.007, 1.011, 1.037, 1.038, 1.043, 1.056, 1.066, 1.070, 1.071, 2.012 and 2.016, gave at least 90% motility inhibition at a test concentration of 0.04 ppm at the 4 days assessment. Compounds numbers 1.012, 1.020, 1.021, 1.033, 1.034, 1.039, 1.064, 1.065, 2.008, 2.009 and 3.005 gave at least 90% motility inhibition at a test concentration of 0.01 ppm at the 4 days assessment. Compounds numbers 1.094, 2.040, 2.048, 2.049, 3.006, 3.009, 3.011 and 3.012 gave at least 90% motility inhibition at a test concentration of 0.0025 ppm at the 4 days assessment.

With `COc1c2ccc(Cl)cc2nn1CC(C)(C#N)NC(=O)c1ccc(OC(F)(F)F)cc1` (stereo not shown) [Compound 2.008, N-[2-(6-Chloro-3-methoxy-2H-indazol-2-yl)-1-cyano-1-methylethyl]-4-trifluoromethoxybenzamide] the inhibition at 0.0025 ppm [1] was ≥ 90%, the inhibition in vivo at 10 mg/kg [2] was ≥ 95% and the inhibition at 0.01 ppm [3] was ≥ 90%.
`CC(C#N)(Cn1nc2ccc(Cl)cc2n1)NC(=O)c1ccc(OC(F)(F)F)cc1` (stereo not shown) [Compound 1.001, N-[2-(5-Chloro-2H-benzotriazol-2-yl)-1-cyano-1-methylethyl]-4-trifluoromethoxybenzamide] was tested, and the inhibition at 0.01 ppm [1] was ≥ 90%, the inhibition in vivo at 100 mg/kg [2] was ≥ 95% and the inhibition at 0.04 ppm [3] was ≥ 90%.
In the case of `CC(C#N)(Cn1nc2cc(Cl)cc(C(F)(F)F)c2n1)NC(=O)c1ccc(OC(F)(F)F)cc1` (stereo not shown) [Compound 1.037, N-[2-(6-Chloro-4-trifluoromethyl-2H-benzotriazol-2-yl)-1-cyano-1-methylethyl]-4-trifluoromethoxybenzamide], the inhibition at 0.01 ppm [1] is reported as ≥ 90% and the inhibition at 0.04 ppm [3] is reported as ≥ 90%.
With `COc1c2ncc(Cl)cc2nn1CC(C)(C#N)NC(=O)c1ccc(OC(F)(F)F)cc1` (stereo not shown) [Compound 3.001, N-[2-(6-Chloro-3-methoxy-2H-pyrazolo[4,3-b]pyridin-2-yl)-1-cyano-1-methylethyl]-4-trifluoromethoxybenzamide] the inhibition at 0.0025 ppm [1] was ≥ 90%, the inhibition in vivo at 1 mg/kg [2] was ≥ 95% and the inhibition in vivo at 10 mg/kg [2] was ≥ 95%.
With `COc1cc(Cl)c2nn(CC(C)(C#N)NC(=O)c3ccc(OC(F)(F)F)cc3)nc2c1` (stereo not shown) [Compound 1.070, N-[2-(4-Chloro-6-methoxy-2H-benzotriazol-2-yl)-1-cyano-1-methylethyl]-4-trifluoromethoxybenzamide] the inhibition at 0.04 ppm [1] was ≥ 90% and the inhibition at 0.04 ppm [3] was ≥ 90%.
`CC(C#N)(Cn1nc2ccc(C(F)(F)F)cc2n1)NC(=O)c1ccc(OC(F)(F)F)cc1` (stereo not shown) [Compound 1.008, N-[1-Cyano-1-methyl-2-(5-trifluoromethyl-2H-benzotriazol-2-yl)ethyl]-4-trifluoromethoxybenzamide] was tested, and the inhibition at 0.15 ppm [1] was ≥ 90%, the inhibition in vivo at 100 mg/kg [2] was ≥ 95% and the inhibition at 0.15 ppm [3] was ≥ 90%.
For `CC(C#N)(Cn1cc2ccc(Cl)cc2n1)NC(=O)c1ccc(OC(F)(F)F)cc1` (stereo not shown) [Compound 2.037, N-[2-(6-Chloro-2H-indazol-2-yl)-1-cyano-1-methylethyl]-4-trifluoromethoxybenzamide], the inhibition at 0.0025 ppm [1] was ≥ 90% and the inhibition in vivo at 10 mg/kg [2] was ≥ 95%.
In the case of `CC(C#N)(Cn1cc2cc([N+](=O)[O-])ccc2n1)NC(=O)c1ccc(OC(F)(F)F)cc1` (stereo not shown) [Compound 2.001, N-[1-Cyano-1-methyl-2-(5-nitro-2H-indazol-2-yl)ethyl]-4-trifluoromethoxybenzamide], the inhibition at 0.04 ppm [1] is reported as ≥ 90% and the inhibition at 0.15 ppm [3] is reported as ≥ 90%.
In the case of `Cc1cc(Cl)cc2nn(CC(C)(C#N)NC(=O)c3ccc(Oc4ccccc4)cc3)nc12` (stereo not shown) [Compound 1.039, N-[2-(6-Chloro-4-methyl-2H-benzotriazol-2-yl)-1-cyano-1-methylethyl]-4-phenoxybenzamide], the inhibition at 0.01 ppm [1] is reported as ≥ 90% and the inhibition at 0.01 ppm [3] is reported as ≥ 90%.
For `CC(C#N)(Cn1nc2cc(Cl)cc(C(F)(F)F)c2n1)NC(=O)c1ccc(Oc2ccccc2)cc1` (stereo not shown) [Compound 1.042, N-[2-(6-Chloro-4-trifluoromethyl-2H-benzotriazol-2-yl)-1-cyano-1-methylethyl]-4-phenoxybenzamide], the inhibition at 0.04 ppm [1] was ≥ 90% and the inhibition at 0.15 ppm [3] was ≥ 90%.
With `COc1c2ncc(Br)c(C)c2nn1CC(C)(C#N)NC(=O)c1ccc(OC(F)(F)F)cc1` (stereo not shown) [Compound 3.007, N-[2-(6-Bromo-3-methoxy-7-methyl-2H-pyrazolo[4,3-b]pyridin-2-yl)-1-cyano-1-methylethyl]-4-trifluoromethoxybenzamide] the inhibition at 0.01 ppm [1] was ≥ 90% and the inhibition in vivo at 1 mg/kg [2] was ≥ 95%.
In the case of `CCC(C#N)(Cn1nc2ccc(Cl)cc2n1)NC(=O)c1ccc(OC(F)(F)F)cc1` (stereo not shown) [Compound 1.047, N-{1-[(5-Chloro-2H-benzotriazol-2-yl)methyl]-1-cyanopropyl}-4-trifluoromethoxybenzamide], the inhibition at 0.04 ppm [1] is reported as ≥ 90% and the inhibition at 0.15 ppm [3] is reported as ≥ 90%.
In the case of `CC(C#N)(Cn1nc2cc(C#N)cc(C(F)(F)F)c2n1)NC(=O)c1ccc(OC(F)(F)F)cc1` (stereo not shown) [Compound 1.056, N-[1-Cyano-2-(6-cyano-4-trifluoromethyl-2H-benzotriazol-2-yl)-1-methylethyl]-4-trifluoromethoxybenzamide], the inhibition at 0.04 ppm [1] is reported as ≥ 90% and the inhibition at 0.04 ppm [3] is reported as ≥ 90%.
`COc1c2cc(Cl)cc(Cl)c2nn1CC(C)(C#N)NC(=O)c1ccc(OC(F)(F)F)cc1` (stereo not shown) [Compound 2.020, N-[1-Cyano-2-(5,7-dichloro-3-methoxy-2H-indazol-2-yl)-1-methylethyl]-4-trifluoromethoxybenzamide] was tested, and the inhibition at 0.15 ppm [1] was ≥ 90% and the inhibition at 0.15 ppm [3] was ≥ 90%.
`CC(C#N)(Cn1nc2ccc(Br)cc2n1)NC(=O)c1ccc(OC(F)(F)F)cc1` (stereo not shown) [Compound 1.020, N-[2-(5-Bromo-2H-benzotriazol-2-yl)-1-cyano-1-methylethyl]-4-trifluoromethoxybenzamide] was tested, and the inhibition at 0.01 ppm [1] was ≥ 90% and the inhibition at 0.01 ppm [3] was ≥ 90%.
With `CC(C#N)(Cn1nc2cccc(Cl)c2n1)NC(=O)c1ccc(OC(F)(F)F)cc1` (stereo not shown) [Compound 1.043, N-[2-(4-Chloro-2H-benzotriazol-2-yl)-1-cyano-1-methylethyl]-4-trifluoromethoxybenzamide] the inhibition at 0.04 ppm [1] was ≥ 90% and the inhibition at 0.04 ppm [3] was ≥ 90%.
For `CC(C#N)(Cn1cc2cc(Cl)cc(Cl)c2n1)NC(=O)c1ccc(OC(F)(F)F)cc1` (stereo not shown) [Compound 2.003, N-[1-Cyano-2-(5,7-dichloro-2H-indazol-2-yl)-1-methylethyl]-4-trifluoromethoxybenzamide], the inhibition at 0.04 ppm [1] was ≥ 90% and the inhibition at 0.15 ppm [3] was ≥ 90%.
In the case of `COC(=O)c1cc(Cl)cc2nn(CC(C)(C#N)NC(=O)c3ccc(OC(F)(F)F)cc3)nc12` (stereo not shown) [Compound 1.084, Methyl 6-chloro-2-[2-cyano-2-({[4-(trifluoromethoxy)phenyl]carbonyl}-amino)propyl]-2H-benzotriazole-4-carboxylate], the inhibition at 0.15 ppm [1] is reported as ≥ 90%.
In the case of `CC(C#N)(Cn1nc2ccc(Cl)c(Br)c2n1)NC(=O)c1ccc(OC(F)(F)F)cc1` (stereo not shown) [Compound 1.057, N-[2-(4-Bromo-5-chloro-2H-benzotriazol-2-yl)-1-cyano-1-methylethyl]-4-trifluoromethoxybenzamide], the inhibition at 0.04 ppm [1] is reported as ≥ 90%.
For `COc1c2ccccc2nn1CC(C)(C#N)NC(=O)c1ccc(OC(F)(F)F)cc1` (stereo not shown) [Compound 2.016, N-[1-Cyano-2-(3-methoxy-2H-indazol-2-yl)-1-methylethyl]-4-trifluoromethoxybenzamide], the inhibition at 0.04 ppm [1] was ≥ 90% and the inhibition at 0.04 ppm [3] was ≥ 90%.
In the case of `CSCC(C#N)(Cn1nc2ccc(Cl)cc2n1)NC(=O)c1ccc(OC(F)(F)F)cc1` (stereo not shown) [Compound 1.061, N-[2-(5-Chloro-2H-benzotriazol-2-yl)-1-cyano-1-(methylthiomethyl)ethyl]-4-trifluoromethoxybenzamide], the inhibition at 0.15 ppm [1] is reported as ≥ 90%.
With `CC(C#N)(Cn1nc2ccc(Cl)cc2n1)NC(=O)c1ccc(S(=O)(=O)C(F)(F)F)cc1` (stereo not shown) [Compound 1.031, N-[2-(5-Chloro-2H-benzotriazol-2-yl)-1-cyano-1-methylethyl]-4-trifluoromethylsulfonylbenzamide] the inhibition at 0.15 ppm [1] was ≥ 90%.
`COc1c2cc(Cl)ccc2nn1CC(C)(C#N)NC(=O)c1ccc(OC(F)(F)F)cc1` (stereo not shown) [Compound 2.012, N-[2-(5-Chloro-3-methoxy-2H-indazol-2-yl)-1-cyano-1-methylethyl]-4-trifluoromethoxybenzamide] was tested, and the inhibition at 0.01 ppm [1] was ≥ 90% and the inhibition at 0.04 ppm [3] was ≥ 90%.

Reference: US8088801B2, “Aryloazol-2-yl cyanoethylamino compounds, method of making and method of using thereof” (Merial Limited, priority 2007, dated 2012)
